Results on four molecules are retold here after patent US6790978B2, “Thyromimetic organic compounds” (Novartis AG, priority 1999, dated 2004).

The target in assay [1] is triiodothyronine (T3) nuclear receptor. As to the kind of experiment: T3 nuclear receptor binding assay (rat liver nuclei, [125I]-L-T3 displacement). Conditions: 0.3 nM [125I]-L-T3, 22° C. Here is the method:
The in vitro binding to T3 nuclear receptors is determined as follows:
Rat liver nuclei and plasma membrane preparations are obtained from Sprague-Dawley (CD) rats (Charles River Labs.) by differential centrifugation as described by Emmelot at al (Methods in Enzymology 31:75, Part A, 1974) with minor modificatons. The nuclear fraction obtained from the 275 ×g pellet is further purified as generally described by Spindler et al (J. Biol. Chem. 250:4118, 1975).
The novel test compounds are assayed for binding to the nuclei by the method of Spindler et al (J. Biol. Chem. 250:4118, 1975). The nuclei are incubated at 22° C. with 0.3 nM of [^125I]-L-triiodothyronine (L-T3). Parallel incubations are conducted with tubes containing, in addition to the nuclei and radioactive L-T3, either various concentrations of the test compounds or 3 μM of nonradioactive L-T3. The latter is used as a measure of nonspecific binding. The radio-activity bound to the nuclei is determined following centrifugation of the reaction mixture at 800×g for 7 minutes and washing of the pellet obtained. The amount of [^125I]-L-T3 specifically bound is determined by subtracting the amount nonspecifically bound (radioactivity contained in the nuclear pellet following incubation with excess (3 μM) non-radioactive L-T3. The concentration of test compound which inhibits the specific binding of [^125I]-L-T3 by 50 percent (IC50) is determined graphically from the reciprocal plot of the specifically bound [^125I]-L-T3 versus the various concentrations of the test compound.

Assay [2] has as its system serum cholesterol. As to the kind of experiment: Cholesterol lowering activity in the rat on a high cholesterol diet. It counts as in vivo. The settings on record: daily dose of about 20 μg/kg p.o. As to the method: Cholesterol lowering activity is determined in the rat as follows:
Male Sprague-Dawley rats (230-250 g) (Taconic Farms) are maintained ad libitum on water and a high cholesterol diet (1.5% cholesterol and 0.5% cholic acid) for two weeks prior to and during the 7-day treatment period. Groups of animals are treated orally by gavage with the vehicle alone or with test compound for 7 consecutive days. After the last dose, animals are fasted for 18 hours and blood is collected. Blood samples are centrifuged at 2500 rpm for 10 minutes to prepare plasma for total cholesterol determination as well as LDL and HDL cholesterol concentrations. HDL values are determined after […] (Warnick and Albers, 1978). All samples are analyzed enzymatically for cholesterol with a diagnostic reagent kit (Sigma Chemical Co., St. Louis, Mo.). The analysis is performed on a Bio-Mek automated work station. LDL/VLDL fractions are precipitated in the following manner: 0.35 mL of plasma is aliquoted into Eppendorf tubes to which 12 μL of 2M manganese chloride, 11.2 μL of sodium heparin (Porcine Intestinal, 5000 units/mL), and 8.3 μL of normal saline are added. The samples are vortexed and are placed on ice for 15 minutes, then centrifuged at 4° C. for 10 minutes at 1300 rpm and the supernatant is enzymatically analyzed for cholesterol. […]

Assay [3] concerns serum cholesterol. As to the kind of experiment: Cholesterol lowering activity in normocholesterolemic dogs. Conditions: dog, daily dose of about 10 μg/kg p.o. Type of assay: in vivo. From the text: Cholesterol lowering activity can also be evaluated in normocholesterolemic dogs fed regular chow following the procedure described above, by administration of test compound orally for 5 days.

In assay [4] the test system is Lp(a). Description: Lp(a) lowering activity in the normolipemic cynomolgus monkey. It counts as in vivo, cynomolgus monkey (Macaca fascicularis). The settings on record: normolipemic cynomolgus monkeys, 4 week treatment, daily oral dose of 75 μg/kg. As to the method:
Cholesterol and Lp(a) lowering activity can be determined in the normolipemic cynomolgus monkey as follows:
Adult male and female cynomolgus monkeys (Macaca fascicularis) weighing 3-7 kg are used. Animals are individually housed and fed a standard monkey chow diet (Purina 5047) supplemented with fresh fruits and vegetables. Each animal serves as its own control and each dosing regime is followed by a wash out period. Test compounds were dissolved in ethanol, imbibed in fruit pulp and administered orally. Animals are dosed once a day with test compounds for a treatment period varying from 8 to 28 days. Blood samples are obtained after an overnight fast at baseline and at the end of the study. […] Plasma samples are divided into aliquots and stored at −70° C. until analyzed. Plasma concentrations of total cholesterol (TC) and triglycerides (TG) are determined by enzymatic methods using commercial kits (Sigma Diagnostics). High-density lipoprotein cholesterol (HDL-C) concentration is measured after precipitation of apoB-containing lipoproteins. Since the fasting plasma of cynomolgus monkeys on a chow diet contains negligible amounts of cholesterol in very low-density lipoprotein, the low-density lipoprotein cholesterol (LDL-C) concentration is calculated by subtracting HDL-C from TC. […] Quantification of Lp(a) is not affected by apo(a) size. […]

The structures appear in SMILES notation.

In assay [1], `Cc1cc(NC(=O)C(=O)O)cc(C)c1Oc1ccc(O)c(S(=O)(=O)c2ccc(Cl)cc2)c1` [Example 28] gave an IC50 of roughly 0.13 nM.

The molecule `O=C(O)C(=O)Nc1cc(Br)c(Oc2ccc(O)c(S(=O)(=O)c3ccc(F)cc3)c2)c(Br)c1` [Example 39, N-{3,5-Dibromo-4-[3-(4-fluorobenzenesulfonyl)-4-hydroxyphenoxy]phenyl}oxamic acid] yielded an IC50 in assay [1] of roughly 0.04 nM.

Take `Cc1cc(NC(=O)C(=O)O)cc(C)c1Oc1ccc(O)c(S(=O)(=O)c2ccc(F)cc2)c1` [Example 26, N-{4-[3-(4-Fluorobenzenesulfonyl)4-hydroxyphenoxy]-3,5-dimethylphenyl}oxamic acid]: the IC50 in assay [1] is roughly 0.17 nM. The serum cholesterol lowering result in assay [2] and in assay [3] was “significantly lowers serum cholesterol” throughout. For the same molecule, in assay [4], the “Lp(a) levels lowered” value is “about 40%”.

Regarding `Cc1cc(NC(=O)CC(=O)O)cc(C)c1Oc1ccc(O)c(S(=O)(=O)c2ccc(F)cc2)c1` [Example 35, N-{4-[3-(4-Fluorobenzenesulfonyl)-4-hydroxyphenoxy]-3,5-dimethylphenyl}malonamic acid], in assay [1], the IC50 was roughly 1 nM.
